# Test results reported in ChEMBL document CHEMBL5335843, “Application of tobramycin benzyl ether as an antibiotic adjuvant capable of sensitizing multidrug-resistant Gram-negative bacteria to rifampicin” (2024).
# Experiments:
# Format in all cases: functional
# Escherichia coli [1] = experiment: Antibiotic adjuvant activity against multi-drug resistant Escherichia coli clinical isolate EC94474 assessed as inhibition of bacterial growth incubated for 18 hrs in presence of minocycline by two fold broth microdilution checkerboard assay
# Pseudomonas aeruginosa [2] = experiment: Antibiotic adjuvant activity against multi-drug resistant Pseudomonas aeruginosa clinical isolate PA262 assessed as minocycline MIC incubated for 18 hrs in presence of minocycline by two fold broth microdilution checkerboard assay
# Acinetobacter baumannii [3] = experiment: Antibiotic adjuvant activity against multi-drug resistant Acinetobacter baumannii clinical isolate 92247 assessed as fractional inhibitory concentration index incubated for 18 hrs in presence of Rifampicin by two fold broth microdilution checkerboard assay
# Enterococcus faecium [4] = experiment: Antibiotic adjuvant activity against Enterococcus faecium 114278 assessed as inhibition of bacterial growth incubated for 18 hrs in presence of rifampicin by two fold broth microdilution checkerboard assay
# Acinetobacter baumannii [5] = experiment: Antibacterial activity against multi-drug resistant Acinetobacter baumannii clinical isolate 110193 assessed as inhibition of bacterial growth incubated for 18 hrs by two fold broth microdilution assay
# Pseudomonas aeruginosa [6] = experiment: Antibiotic adjuvant activity against multi-drug resistant Pseudomonas aeruginosa clinical isolate PA101243 assessed as fractional inhibitory concentration index incubated for 18 hrs in presence of doxycycline by two fold broth microdilution checkerboard assay
# Enterococcus faecium [7] = experiment: Antibiotic adjuvant activity against Enterococcus faecium 128149 assessed as inhibition of bacterial growth incubated for 18 hrs in presence of rifampicin by two fold broth microdilution checkerboard assay
# Pseudomonas aeruginosa [8] = experiment: Antibiotic adjuvant activity against multi-drug resistant Pseudomonas aeruginosa clinical isolate PA101243 assessed as fold potentiation incubated for 18 hrs in presence of minocycline by two fold broth microdilution checkerboard assay
# Pseudomonas aeruginosa [9] = experiment: Antibiotic adjuvant activity against multi-drug resistant Pseudomonas aeruginosa clinical isolate PA114228 assessed as fold potentiation incubated for 18 hrs in presence of doxycycline by two fold broth microdilution checkerboard assay
# Enterococcus faecium [10] = experiment: Antibiotic adjuvant activity against Enterococcus faecium 128149 assessed as fold potentiation incubated for 18 hrs in presence of rifampicin by two fold broth microdilution checkerboard assay
# Pseudomonas aeruginosa [11] = experiment: Antibiotic adjuvant activity against multi-drug resistant Pseudomonas aeruginosa clinical isolate PA264 assessed as fold potentiation incubated for 18 hrs in presence of Rifampicin by two fold broth microdilution checkerboard assay
# Pseudomonas aeruginosa [12] = experiment: Antibiotic adjuvant activity against multi-drug resistant Pseudomonas aeruginosa clinical isolate PA259 assessed as fractional inhibitory concentration index incubated for 18 hrs in presence of doxycycline by two fold broth microdilution checkerboard assay
# Pseudomonas aeruginosa [13] = experiment: Antibiotic adjuvant activity against multi-drug resistant Pseudomonas aeruginosa clinical isolate PA259 assessed as fractional inhibitory concentration index incubated for 18 hrs in presence of Rifampicin by two fold broth microdilution checkerboard assay
# Escherichia coli [14] = experiment: Antibacterial activity against multi-drug resistant Escherichia coli clinical isolate 107115 assessed as inhibition of bacterial growth incubated for 18 hrs by two fold broth microdilution assay
# Escherichia coli [15] = experiment: Antibiotic adjuvant activity against multi-drug resistant Escherichia coli clinical isolate EC94474 assessed as fold potentiation incubated for 18 hrs in presence of minocycline by two fold broth microdilution checkerboard assay
# Acinetobacter baumannii [16] = experiment: Antibiotic adjuvant activity against multi-drug resistant Acinetobacter baumannii clinical isolate 92247 assessed as fold potentiation incubated for 18 hrs in presence of Rifampicin by two fold broth microdilution checkerboard assay
# Escherichia coli [17] = experiment: Antibiotic adjuvant activity against multi-drug resistant Escherichia coli clinical isolate 94474 assessed as fold potentiation incubated for 18 hrs in presence of Rifampicin by two fold broth microdilution checkerboard assay
# Enterococcus faecium [18] = experiment: Antibiotic adjuvant activity against Enterococcus faecium 128149 assessed as fractional inhibitory concentration index incubated for 18 hrs in presence of rifampicin by two fold broth microdilution checkerboard assay
# Pseudomonas aeruginosa [19] = experiment: Antibiotic adjuvant activity against multi-drug resistant Pseudomonas aeruginosa clinical isolate PA114228 assessed as fractional inhibitory concentration index incubated for 18 hrs in presence of doxycycline by two fold broth microdilution checkerboard assay
# Pseudomonas aeruginosa [20] = experiment: Antibiotic adjuvant activity against multi-drug resistant Pseudomonas aeruginosa clinical isolate PA114228 assessed as minocycline MIC incubated for 18 hrs in presence of minocycline by two fold broth microdilution checkerboard assay
# Acinetobacter baumannii [21] = experiment: Antibiotic adjuvant activity against multi-drug resistant Acinetobacter baumannii clinical isolate 92247 assessed as inhibition of bacterial growth incubated for 18 hrs in presence of Rifampicin by two fold broth microdilution checkerboard assay
# Escherichia coli [22] = experiment: Antibiotic adjuvant activity against multi-drug resistant Escherichia coli clinical isolate EC94474 assessed as fractional inhibitory concentration index incubated for 18 hrs in presence of doxycycline by two fold broth microdilution checkerboard assay
# Pseudomonas aeruginosa [23] = experiment: Antibiotic adjuvant activity against multi-drug resistant Pseudomonas aeruginosa clinical isolate PA264 assessed as fractional inhibitory concentration index incubated for 18 hrs in presence of Rifampicin by two fold broth microdilution checkerboard assay
# Acinetobacter baumannii [24] = experiment: Antibiotic adjuvant activity against Acinetobacter baumannii ATCC 17978 assessed as fold increase in MIC incubated for 18 hrs in presence of rifampicin and CAMHB Mg2+ media by two fold broth microdilution checkerboard assay
# Acinetobacter baumannii [25] = experiment: Antibacterial activity against Acinetobacter baumannii ATCC 17978 assessed as inhibition of bacterial growth incubated for 18 hrs by two fold broth microdilution assay
# Acinetobacter baumannii [26] = experiment: Antibacterial activity against multi-drug resistant Acinetobacter baumannii clinical isolate 92247 assessed as inhibition of bacterial growth incubated for 18 hrs by two fold broth microdilution assay
# Acinetobacter baumannii [27] = experiment: Antibiotic adjuvant activity against Acinetobacter baumannii ATCC 17978 assessed as fold potentiation incubated for 18 hrs in presence of rifampicin and FBS media by two fold broth microdilution checkerboard assay
structure (smiles),measurement,setting,value
Cl.NC[C@H]1O[C@H](O[C@H]2[C@H](OCc3ccccc3)[C@@H](O[C@H]3O[C@H](COCc4ccccc4)[C@@H](OCc4ccccc4)[C@H](N)[C@H]3OCc3ccccc3)[C@H](N)C[C@@H]2N)[C@H](N)C[C@@H]1OCc1ccccc1,MIC,Escherichia coli [1],8 µg/mL
same,MIC,Pseudomonas aeruginosa [2],256 µg/mL
same,fractional inhibitory concentration index (FICI),Acinetobacter baumannii [3],0.252
same,MIC,Enterococcus faecium [4],4 µg/mL
same,MIC,Acinetobacter baumannii [5],64 µg/mL
same,fractional inhibitory concentration index (FICI),Pseudomonas aeruginosa [6],1.063
same,MIC,Enterococcus faecium [7],8 µg/mL
same,fold change (FC),Pseudomonas aeruginosa [8],1
same,fold change (FC),Pseudomonas aeruginosa [9],1
same,fold change (FC),Enterococcus faecium [10],1
same,fold change (FC),Pseudomonas aeruginosa [11],1
same,fractional inhibitory concentration index (FICI),Pseudomonas aeruginosa [12],1.063
same,fractional inhibitory concentration index (FICI),Pseudomonas aeruginosa [13],1.063
same,MIC,Escherichia coli [14],32 µg/mL
same,fold change (FC),Escherichia coli [15],64
same,fold change (FC),Acinetobacter baumannii [16],512
same,fold change (FC),Escherichia coli [17],256
same,fractional inhibitory concentration index (FICI),Enterococcus faecium [18],1.5
same,fractional inhibitory concentration index (FICI),Pseudomonas aeruginosa [19],1.063
same,MIC,Pseudomonas aeruginosa [20],128 µg/mL
same,MIC,Acinetobacter baumannii [21],8 µg/mL
same,fractional inhibitory concentration index (FICI),Escherichia coli [22],0.188
same,fractional inhibitory concentration index (FICI),Pseudomonas aeruginosa [23],1.063
same,fold change (FC),Acinetobacter baumannii [24],>=2
same,MIC,Acinetobacter baumannii [25],64 µg/mL
same,MIC,Acinetobacter baumannii [26],32 µg/mL
same,fold change (FC),Acinetobacter baumannii [27],4
